Data as given in patent US20250381210A1, “METHODS OF TREATING VASCULAR DEMENTIA” (The Regents of the University of California, priority 2024, published 2025).

Assays:
VaD mouse model [1] = assay: Acute piclidenoson, infusion into lateral ventricle 30-min after VaD induction; lesion size and BBB leakage by immunostaining; assay type: in vivo; conditions: acute administration 30-min post stroke, for 1-2 weeks, direct infusion into lateral ventricle, vs vehicle
Description: (§1) VaD in the mouse was modified from white matter stroke model. Briefly, the mice were anesthetized with 2% isoflurane and securely mounted onto a stereotaxic apparatus. Core body temperature of the mice was maintained at 36.5 to 37.5° C. A midline incision was made down the scalp, and a craniotomy was performed with a dental drill. A Nanoliter injector (World Precision Instruments) was used to infuse 27 μg/μL of L-NIO (Sigma-Aldrich, 400-600) in sterile saline (Hospira) with Micro4 Controller injector (World Precision Instruments), at the speed of 100 nL/min. To avoid damage to motor cortex, the glass pipette (Wrld Precision Instruments, 1B100F-4) containing the L-NIO was inserted through the cortex of the frontal lobe into the underlying subcortical WM at an angle of 36°. Three injections (each of 0.3 μL of L-NIO solution) were made in the following coordinates: AP +0.80 mm, ML +2.00 mm, DV −1.56 mm; AP +0.80 mm, ML +2.83 mm, DV −1.60 mm; and AP +0.80 mm, ML +3.66 mm, DV −1.61 mm. Localized vasoconstriction leads to focal ischemia in the subcortical WM. Female mice were excluded because estrogen is potentially preventative against ischemic stroke.
(§2) Immunostaining was performed by brain section blocking in 5% normal donkey serum for 1 hour at room temperature, incubating in primary antibody overnight at 4° C., and in secondary antibody for 1 hour at room temperature. For the performance using CD39 and Pdgfrβ antibodies, antigen retrieval using sodium citrate buffer ([…], pH 6.0), in pressure cooker for 3 min was applied before blocking. All sections were counterstained with 4′,6-diamidino-2-phenylindole (DAPI). The antibodies used in this study are listed below.
High-resolution confocal images in z-stacks were acquired (Nikon C2). Area measurements of the infarct core, WM axonal projections stained with NF160 and MBP were quantified with Imaris (Bitplane, version 10.0.0) using surface function; all the channels were threshold with the same absolute intensity against the background. […]
• 1. Quantification of MBP and NF160 volume for FIGS. 26I, 28M, 28N. […] For each animal, 4 slices, with 300 μm interval across the lesion core along the anterior-posterior axis, were quantified. • 2. Quantification of absolute core sizes (FIG. 16F). […] The size of core area is measured in ImageJ. […] Quantification of relative core sizes (FIG. 28I, 28L). For each animal, 4 slices, with 300 μm interval across the lesion core along the anterior-posterior axis, were quantified using ImageJ. […] Quantification of c-Fos cells (FIG. 16R, 16S, 28Q, 28R). For slices from prefrontal cortex, the number of c-Fos cells were quantified by Imaris using spots function, and normalized with the number of neurons (NeuN+) in the same region of interest (ROI). […]

VaD mouse model [2] = assay: Delayed piclidenoson (5 days after VaD induction); lesion size, axon and myelin volume by immunostaining; assay type: in vivo; conditions: delayed treatment from 5 days after VaD induction, vs vehicle; for VaD lesion size: examined 3 weeks after treatment
Description: as §1, §2
High-resolution confocal images in z-stacks were acquired (Nikon C2). Area measurements of the infarct core, WM axonal projections stained with NF160 and MBP were quantified with Imaris (Bitplane, version 10.0.0) using surface function; all the channels were threshold with the same absolute intensity against the background. The parameters for scanning were kept constant across treatment, and conditions.
(§3) • 1. Quantification of MBP and NF160 volume for FIGS. 26I, 28M, 28N. Imaris (Bitplane, version 10.0.0) using surface function; all the channels were threshold with the same absolute intensity against the background. Because the absolute volume of cerebral white matter varies between coronal slices depending on the coordinate along anterior-posterior axis, it is difficult to directly compare the absolute volume of NF160 or MBP between groups. The volume of ipsilateral white matter is very similar to the contralateral white matter, we first normalized the volume of NF160 or MBP at the ipsilateral side to the contralateral side (no lesion), and then compare the normalized value between groups. This may be a more reasonable way to investigate how the axon reprojection and myelin regrowth is changed by piclidenoson (CF101) treatment. For each animal, 4 slices, with 300 μm interval across the lesion core along the anterior-posterior axis, were quantified. • 2. Quantification of absolute core sizes (FIG. 16F). For each animal, all the slices that cover the lesion core were stained with MBP, NF160, DAPI, and GFAP. The area of core is defined as brain region with NF160/MBP debris, high density of DAPI, and GFAP boundary. The size of core area is measured in ImageJ. The absolute core size is defined by the sum of core area×the slice thickness from all slices. • 3. Quantification of relative core sizes (FIG. 28I, 28L). For each animal, 4 slices, with 300 μm interval across the lesion core along the anterior-posterior axis, were quantified using ImageJ. The relative core sizes were normalized by the average of vehicle treated group. • 4. Quantification of c-Fos cells (FIG. 16R, 16S, 28Q, 28R). For slices from prefrontal cortex, the number of c-Fos cells were quantified by Imaris using spots function, and normalized with the number of neurons (NeuN+) in the same region of interest (ROI). […]

VaD mouse model [3] = assay: Novel Object Recognition (NOR) test after delayed piclidenoson treatment; assay type: in vivo; conditions: delayed treatment from 5 days after VaD induction, legend: one sample paired t test compared to 50%
Description: VaD in the mouse was modified from white matter stroke model. Briefly, the mice were anesthetized with 2% isoflurane and securely mounted onto a stereotaxic apparatus. Core body temperature of the mice was maintained at 36.5 to 37.5° C. A midline incision was made down the scalp, and a craniotomy was performed with a dental drill. A Nanoliter injector (World Precision Instruments) was used to infuse 27 μg/μL of L-NIO (Sigma-Aldrich, 400-600) in sterile saline (Hospira) with Micro4 Controller injector (World Precision Instruments), at the speed of 100 nL/min. To avoid damage to motor cortex, the glass pipette (Wrld Precision Instruments, 1B100F-4) containing the L-NIO was inserted through the cortex of the frontal lobe into the underlying subcortical WM at an angle of 36°. Three injections (each of 0.3 μL of L-NIO solution) were made in the following coordinates: AP +0.80 mm, ML +2.00 mm, DV −1.56 mm; AP +0.80 mm, ML +2.83 mm, DV −1.60 mm; and AP +0.80 mm, ML +3.66 mm, DV −1.61 mm. Localized vasoconstriction leads to focal ischemia in the subcortical WM. […] Osmotic mini-pumps (1002, 1004) were subcutaneously implanted and connected to right lateral ventricle through brain infusion kit 3 (Alzet). The brain infusion kits were fixed onto the skull with super glue (Loctite, 45198). […] All tests were performed 3-4 weeks after VaD. […] For NOR, the testing mice were allowed to explore an open field arena (30 cm×30 cm) with 2 identical objects for 12 min on the first day. Then the one object was replaced to a novel object and the mice were allowed to explore the 2 different objects for 8 min. The exploration was recorded and the time to explore each object was analyzed by ANY-maze. The data were presented as exploration ratio of time spent exploring the novel object versus both objects. For NOR, mice were habituated in an open field arena (41.5 cm×41.5 cm×41.5 cm) for 10 min. […] The exploration was recorded and the time to explore each object was analyzed by ANY-maze, and/or manually hand-scored. […]

VaD mouse model [4] = assay: c-Fos quantification in PFC (AC) and HPC (CA2/3) after delayed piclidenoson treatment; assay type: in vivo; conditions: VaD animals
Description: as §1, §2
as §3, with “(ROI). For slices from hippocampus, the number of c-Fos cells were quantified by Imaris and normalized with the volume of ROI because it is difficult to normalize with the number of neurons due to compact pyramidal cell layer. The same quality threshold was used for all samples. • 5. Quantification of CD39 in human IHC (FIG. 28D, 28E).” for “(ROI).”

VaD mouse model [5] = assay: Grid walking task after delayed piclidenoson treatment; assay type: in vivo; conditions: three weeks post piclidenoson treatment
Description: as §1, with “stroke. Osmotic mini-pumps (1002, 1004) were subcutaneously implanted and connected to right lateral ventricle through brain infusion kit 3 (Alzet). The brain infusion kits were fixed onto the skull with super glue (Loctite, 45198). For 4-week treatment, 1004 mini-pumps were used to delivery 400 µM of piclidenoson (in 1% DMSO in saline) at the speed of 0.11 μL/h; For 2-week treatment, 1002 mini-pumps were used to deliver 200 μM of piclidenoson at the speed of 0.23 μL/h. For Grid walking test, the mice were tested 1-day pre-, 7-day, 30-day, and 60-day post-VaD in progressiveness investigation, and 1-day pre-, 4-day and 21-day post-VaD in piclidenoson treatment study. Behavior tests were scored by observers who were masked to the treatment group of the animals.” for “stroke.”

VaD mouse model [6] = assay: Satb2 and Cux1 immunostaining in cortical Layer VI after delayed piclidenoson treatment; assay type: in vivo; conditions: motor somatosensory cortex
Description: as §1, §2
as §3, with “(ROI). For slices from hippocampus, the number of c-Fos cells were quantified by Imaris and normalized with the volume of ROI because it is difficult to normalize with the number of neurons due to compact pyramidal cell layer. The same quality threshold was used for all samples. • 5. Quantification of CD39 in human IHC (FIG. 28D, 28E).” for “(ROI).”

A3AR = conditions: cited from earlier work
[7] = recent phase III clinical trials for psoriasis; cited from earlier work

Q: What does the source list for `CNC(=O)[C@H]1O[C@@H](n2cnc3c(NCc4cccc(I)c4)ncnc32)[C@H](O)[C@@H]1O` [piclidenoson, 1-deoxy-1-[6-[(iodophenyl)methyl]amino]9H-purine-9-yl]-N-methyl-(-D-ribofuranuronamide]?
A: VaD lesion size (VaD mouse model [1]): may reduce lesion size; blood brain barrier (BBB) leakage (immunoreactivity of mouse IgG) (VaD mouse model [1]): significantly reduced blood brain barrier (BBB) leakage; blood brain barrier (BBB) leakage (immunoreactivity of mouse IgG) (VaD mouse model [1]; listed as CF101): reduced blood brain barrier (BBB) leakage; blood brain barrier (BBB) leakage (immunoreactivity of mouse IgG) (VaD mouse model [1]; listed as Pic): Veh vs Pic, *p<0.05; VaD lesion size (VaD mouse model [2]): significant reduction of lesion size; VaD lesion size (VaD mouse model [2]; listed as CF101): significant reduction of lesion size; VaD lesion size (VaD mouse model [2]; listed as Pic): Veh vs Pic, *p<0.05; axon volume / axonal projections (NF160 immunostaining) (VaD mouse model [2]): not changed; myelin volume / markers of myelination (MBP immunostaining) in affected WM (VaD mouse model [2]): significantly increased; axon volume / axonal projections (NF160 immunostaining) (VaD mouse model [2]; listed as CF101): not changed; myelin volume / markers of myelination (MBP immunostaining) in affected WM (VaD mouse model [2]; listed as CF101): significantly increased; axon volume / axonal projections (NF160 immunostaining) (VaD mouse model [2]; listed as Pic): Veh vs Pic, n.s.=not significant; myelin volume / markers of myelination (MBP immunostaining) in affected WM (VaD mouse model [2]; listed as Pic): Veh vs Pic, *p<0.05; NOR memory test, memory deficits (novel object preference) (VaD mouse model [3]): significantly reduced memory deficits; NOR memory test, memory deficits (novel object preference) (VaD mouse model [3]; listed as CF101): significantly reduced memory deficits; NOR memory test, memory deficits (novel object preference) (VaD mouse model [3]; listed as Pic): Con_Veh, Con_Pic, and VaD_Pic groups, *p<0.05; c-Fos expression in HPC CA2/3, c-Fos+ cell numbers per mm^3 (VaD mouse model [4]): restored c-Fos expression; c-Fos expression in PFC anterior cingulate (AC), c-Fos/NeuN (%) (VaD mouse model [4]): restored c-Fos expression; c-Fos expression in HPC CA2/3, c-Fos+ cell numbers per mm^3 (VaD mouse model [4]; listed as CF101): restored c-Fos expression; c-Fos expression in PFC anterior cingulate (AC), c-Fos/NeuN (%) (VaD mouse model [4]; listed as CF101): restored c-Fos expression; c-Fos expression in HPC CA2/3, c-Fos+ cell numbers per mm^3 (VaD mouse model [4]; listed as Pic): Con_Veh vs VaD_Pic, n.s.=not significant; c-Fos expression in PFC anterior cingulate (AC), c-Fos/NeuN (%) (VaD mouse model [4]; listed as Pic): Con_Veh vs VaD_Pic, n.s.=not significant; grid walking task, motor deficit (VaD mouse model [5]): successfully rescued the motor deficit; grid walking task, motor deficit (VaD mouse model [5]; listed as CF101): successfully rescued the motor deficit; grid walking task, motor deficit (VaD mouse model [5]; listed as Pic): VaD_Veh vs VaD_Pic, ##p<0.01; Cux1 expression, Cux1+/NeuN (%) in Layer VI above infarct lesion (VaD mouse model [6]): significantly ameliorated; Satb2 expression, Satb2+/NeuN (%) in Layer VI near infarct lesion (VaD mouse model [6]): significantly ameliorated; Satb2 expression, Satb2+/NeuN (%) in Layer VI near infarct lesion (VaD mouse model [6]; listed as CD101): VaD_Veh vs VaD_CD101, *p<0.05; Cux1 expression, Cux1+/NeuN (%) in Layer VI above infarct lesion (VaD mouse model [6]; listed as CF101): significantly ameliorated; Satb2 expression, Satb2+/NeuN (%) in Layer VI near infarct lesion (VaD mouse model [6]; listed as CF101): significantly ameliorated; Cux1 expression, Cux1+/NeuN (%) in Layer VI above infarct lesion (VaD mouse model [6]; listed as Pic): Con_Veh vs VaD_Pic, n.s.=not significant; Satb2 expression, Satb2+/NeuN (%) in Layer VI near infarct lesion (VaD mouse model [6]; listed as Pic): Con_Veh vs VaD_Pic, n.s.=not significant; potency in A3AR action relative to A1AR and A2bAR (A3AR; A3AR vs A1AR and A2bAR): 50 fold; non-specific effects on other adenosine receptors (A3AR): minimal non-specific effects on other adenosine receptors; safety in humans [7]: safely used in humans
